Data published in US9771394B2, “Antimicrobial polymyxins for treatment of bacterial infections” (priority 2014, dated 2017).
Where “and” joins values, the source holds several entries; their conditions need not be identical. Identical values can stand only once. Like-named read-outs stand apart in the source and are kept apart here. Marks after values point to notes of the source that are not given here. Starred links: 1 amine or outer side, 2 acyl side, 3 side chain; linkers in the order of their positions; H or OH if unused. Positions of bridges follow the written chain, without caps; N, C: chain ends. Non-standard residues stand in square brackets, D forms with d. Residues, ends and D or L forms follow the SMILES beside them. ξ: configuration not given here. *: point of attachment. Thr(3ξ) = CC(O)[C@H](N)C(=O)O; Suc = O=C(CCC(=O)[*:2])[*:1]; X1 = CCC(C)(C)C(=O)OCCC(=O)*; X2 = CCCC(C)OC(=O)CCC(=O)*; X5 = CCCCOP(=O)(O)CC(=O)*; Dab = NCC[C@H](N)C(=O)O

What was measured:
[1] = system: P. aeruginosa PAE 1001; type: cell-based, Pseudomonas aeruginosa
Description: (§1) In vitro activity of compounds provided herein may be assessed by standard testing procedures such as the determination of minimum inhibitory concentration (MIC, μg/mL) just as described in “Methods for Dilution Antimicrobial Susceptibility Tests for Bacteria That Grow Aerobically; Approved Standard—Ninth Edition,” published in 2012 by the Clinical and Laboratory Standards Institute, Wayne, Pa., USA. Thus, bacterial colonies grown overnight on Mueller-Hinton Agar plate were selected and suspended in sterile saline to a turbidity of about 80% transmittance, as measured by a spectrophotometer. The suspension was diluted 200-fold with cation-adjusted Mueller-Hinton broth to serve as the inoculum for testing. Two-fold serial dilutions of the test compound were performed in 96-well master plate to arrive at desired concentration. Samples of 10 microliter from each well of the master plate were transferred into respective wells of 96-well assay plate. Bacterial inoculum (90 microliter) was introduced into each well of the assay plate. The assay plate was placed in the incubator at 35° C. for about 24 h (without agitation) followed by the MIC determination. MIC values were determined based on the presence or absence of bacterial growth in wells at the given test agent concentration. MIC value is defined as the lowest concentration of test antibiotic that prevents visible bacterial growth.
(§2) The useful activity of exemplary compounds described herein against Gram-negative pathogens Pseudomonas aeruginosa, Escherichia coli, or Klebsiela pneumoniae is illustrated by the MIC data of Table 1.

[2] = system: E. coli WECO 1003; type: cell-based, Escherichia coli
Description: as §1, §2

[3] = system: P. aeruginosa; assay: P. aeruginosa thigh infection mouse model, IV dosing; type: in vivo, Pseudomonas aeruginosa; details: CFU change at 12 h vs no treatment control, PMB values in parenthesis side-by-side
Description: (§3) A lower ED50 value indicates a higher therapeutic efficacy of the drug. The number of surviving animals (from the total number of infected animals used at a given drug dose) is another indicator of efficacy. […] In thigh and lung infection models, a greater reduction in the bacterial colony-forming units (CFU) indicates stronger beneficial therapeutic effect (more bacterial eradication), while a lower CFU reduction or an increase in CFU value indicates a lower effect (less bacterial eradication), or an absence of the therapeutic effect.

[4] = system: E. coli; assay: E. coli septicemia (systemic) mouse model, IV dosing; type: in vivo, Escherichia coli; details: PMB values are side-by-side comparator; for number (A) of surviving animals out of total (B) mice, A/B: at 5 mg/kg
Description: as §3

[5] = Stability in human plasma at 37° C.; type: in vitro ADME; details: for remaining at 1 h, 25 μM / remaining at 4 h, 25 μM: human, plasma
Procedure: Exemplary compounds of this invention were tested for stability in human plasma at 37° C., replicating in vivo conditions of mammalian blood. Plasma stability for select compounds was performed as follows. Human plasma (K2 EDTA) was obtained from Bioreclamation. The assay was carried out in 96-well microtiter plates. Test compounds were incubated in duplicate at 37° C. in the presence of plasma. Reaction mixtures (25 μL) contained a final concentration of 25 μM test compound. The extent of metabolism was calculated as the disappearance of the test compound over time. Eucatropine was included as a positive control to verify assay performance. At each given time point, 100 μL of quench solution (100% MeCN with 0.1% HCOOH) with internal standard was transferred to each well. Plates were sealed, vortexed, and centrifuged at 4° C. for 15 minutes at 4,000 rpm. The supernatant was transferred to fresh plates for LC/MS/MS analysis. The formation of a potential metabolite was monitored in all samples. The samples were analyzed on LC/MS/MS using an AB Sciex API 4000 instrument, coupled to a Shimadzu LC-20AD LC Pump system. Analytical samples were separated using a Waters Atlantis T3 dC18 reverse phase HPLC column (20 mm×2.1 mm) at […] a flow rate of 0.5 mL/min, eluting with 0.1% aq. HCOOH and 0.1% HCOOH in MeCN (using gradient from 2% to 98% of the latter). Remaining test compounds were quantified via MS/MS ion current.

[6] = system: K. pneumoniae KPN1004; type: cell-based, Klebsiela pneumoniae
Description: as §1, §2

[7] = system: human HK-2 cell; assay: Human HK-2 cell cytotoxicity assay (in vitro nephrotoxicity); type: cell-based
Description: (§4) Nephrotoxicity of polymyxins could be determined in vitro using human renal […] (HK-2) cytotoxicity assay, analogously to that described, for example, by Keirstead et al. in Toxicol. Sci., 2014, vol. 137, pp. 278-291. In vivo, nephrotoxicity could be determined using urine biomarker assays, such as clinically validated neutrophil gelatinase-associated lipocalin (NGAL) assay described, for example by Devarajan in Scand. J. Clin. Lab. Invest. Suppl., 2008, vol. […], pp. 89-94.

[8] = system: P. aeruginosa; assay: P. aeruginosa lung infection (pneumonia) mouse model, SC dosing; type: in vivo, Pseudomonas aeruginosa; details: for Relative CFU count, vs. PMB: mouse lung infection, 10 mg/kg; for P. aeruginosa Lung infection model ΔlogCFU at 10 mg/kg: mouse, CFU change at 24 h vs starting inoculum
Description: as §3

[9] = system: Gram-negative pathogens Pseudomonas aeruginosa, Escherichia coli, or Klebsiela pneumoniae; assay: MIC, Gram-negative panel of Table 1; type: cell-based
Description: In vitro activity of compounds provided herein may be assessed by standard testing procedures such as the determination of minimum inhibitory concentration (MIC, μg/mL) just as described in “Methods for Dilution Antimicrobial Susceptibility Tests for Bacteria That Grow Aerobically; Approved Standard—Ninth Edition,” published in 2012 by the Clinical and Laboratory Standards Institute, Wayne, Pa., USA. Thus, bacterial colonies grown overnight on Mueller-Hinton Agar plate were selected and suspended in sterile saline to a turbidity of about 80% transmittance, as measured by a spectrophotometer. The suspension was diluted 200-fold with cation-adjusted Mueller-Hinton broth to serve as the inoculum for testing. Two-fold serial dilutions of the test compound were performed in 96-well master plate to arrive at desired concentration. Samples of 10 microliter from each well of the master plate were transferred into respective wells of 96-well assay plate. Bacterial inoculum (90 microliter) was introduced into each well of the assay plate. The assay plate was placed in the incubator at 35° C. for about 24 h (without agitation) followed by the MIC determination. MIC values were determined based on the presence or absence of bacterial growth in wells at the given test agent concentration. MIC value is defined as the lowest concentration of test antibiotic that prevents visible bacterial growth. […]

[10] = system: neutrophil gelatinase-associated lipocalin (NGAL); assay: Rat urine NGAL biomarker assay (in vivo nephrotoxicity); details: repeated dose, 25 mg/kg/day QID, SC, Low = signal similar to the background
Description: as §4

[11] = 35° C., about 24 h, cation-adjusted Mueller-Hinton broth

Compound | Antibacterial activity (MIC) P. aeruginosa PAE 1001 ([1]; PAE 1001, 24 h) | Antibacterial activity (MIC) E. coli WECO 1003 ([2]; WECO 1003, 24 h) | P. aeruginosa Thigh model, IV dosing ΔlogCFU at 5 mg/kg [3] | E. coli Systemic model, IV dosing ED50 [4] | number (A) of surviving animals out of total (B) mice, A/B [4] | remaining at 1 h, 25 μM [5] | remaining at 4 h, 25 μM [5] | Antibacterial activity (MIC) K. pneumoniae KPN1004 ([6]; KPN1004, 24 h) | HK-2 cytotoxicity class [7] | IC50 [7] | Relative CFU count, vs. PMB [8] | P. aeruginosa Lung infection model ΔlogCFU at 10 mg/kg [8] | Antibacterial activity (MIC) P. aeruginosa PAE 1001 [1, 11] | Antibacterial activity (MIC) E. coli WECO 1003 [2, 11] | Antibacterial activity (MIC) K. pneumoniae KPN1004 [6, 11] | further results
CCC(C)(C)C(=O)OCCC(=O)N[C@@H](CCN)C(=O)N[C@H](C(=O)N[C@@H](CCN)C(=O)N[C@H]1CCNC(=O)[C@H](C(C)O)NC(=O)[C@H](CCN)NC(=O)[C@H](CCN)NC(=O)[C@H](CC(C)C)NC(=O)[C@@H](Cc2ccccc2)NC(=O)[C@H](CCN)NC1=O)C(C)O (stereo partly shown) [Example 12] (X1-[Dab][Thr(3ξ)][Dab][Dab][Dab][dF]L[Dab][Dab][Thr(3ξ)]; lactam 4-C) | 4 µg/mL | 2 µg/mL | −1.44 | 2.5 mg/kg | 3/6 | 67% | 31% | 2 µg/mL | Class 4 | > 200 µM | 1.7 × 10^−5 | −2.15 | – | – | – | –
CCCC(C)OC(=O)CCC(=O)N[C@@H](CCN)C(=O)N[C@H](C(=O)N[C@@H](CCN)C(=O)N[C@H]1CCNC(=O)[C@H](C(C)O)NC(=O)[C@H](CCN)NC(=O)[C@H](CCN)NC(=O)[C@H](CC(C)C)NC(=O)[C@@H](Cc2ccccc2)NC(=O)[C@H](CCN)NC1=O)C(C)O (stereo partly shown) [Example 18] (X2-[Dab][Thr(3ξ)][Dab][Dab][Dab][dF]L[Dab][Dab][Thr(3ξ)]; lactam 4-C) | 2 µg/mL | 2 µg/mL | −1.29 | 7.5 mg/kg | 3/6 | 66% | 18% | 4 µg/mL | Class 4 | > 200 µM | 4.8 × 10^−6 | −2.70 | – | – | – | –
CC(C)C[C@@H]1NC(=O)[C@@H](Cc2ccccc2)NC(=O)[C@H](CCN)NC(=O)[C@@H](NC(=O)[C@H](CCN)NC(=O)[C@@H](NC(=O)[C@H](CCN)NC(=O)CCC(=O)O)C(C)O)CCNC(=O)[C@H](C(C)O)NC(=O)[C@H](CCN)NC(=O)[C@H](CCN)NC1=O (stereo partly shown) [Example 19] (Suc-[Dab][Thr(3ξ)][Dab][Dab][Dab][dF]L[Dab][Dab][Thr(3ξ)]; lactam 4-C) | 4 µg/mL | >32 µg/mL | −0.14 | – | – | – | – | >32 µg/mL | Class 4 | > 200 µM | – | – | – | – | – | antibacterial activity in words (MIC, Table 1) ([9]; Example 19: against two Gram-negative pathogens in the test): essentially inactive
CCCCOP(=O)(O)CC(=O)N[C@@H](CCN)C(=O)N[C@H](C(=O)N[C@@H](CCN)C(=O)N[C@H]1CCNC(=O)[C@H](C(C)O)NC(=O)[C@H](CCN)NC(=O)[C@H](CCN)NC(=O)[C@H](CC(C)C)NC(=O)[C@@H](Cc2ccccc2)NC(=O)[C@H](CCN)NC1=O)C(C)O (stereo partly shown) [Example 33] (X5-[Dab][Thr(3ξ)][Dab][Dab][Dab][dF]L[Dab][Dab][Thr(3ξ)]; lactam 4-C) | – | – | – | – | – | – | – | – | – | – | – | – | 8 µg/mL | 8 µg/mL | 8 µg/mL | fold less active than polymyxin B comparator (MIC) ([9]; vs polymyxin B): about 2 fold
polymyxin B [reference compound] | – | – | – | – | – | – | – | – | – | – | 1 | +2.61 | 2-4^a μg/mL | 2-4^a μg/mL | 2-4^a μg/mL | In vivo: rat urine biomarker NGAL [10]: High: above detection; P. aeruginosa Thigh model, IV dosing ΔlogCFU at 5 mg/kg ([3]; listed as Polymyxin B (PMB)): −1.49 to −3.33; E. coli Systemic model, IV dosing ED50 ([4]; listed as PMB): 4.6 mg/kg and 3.9 mg/kg and 2.5 mg/kg; E. coli Systemic model, IV dosing ED50 ([4]; listed as Polymyxin B (PMB)): 4 to 7 mg/kg; number (A) of surviving animals out of total (B) mice, A/B ([4]; listed as PMB): 2/6 and 5/6 and 3/6; Compound remaining, % T = 1.0 h ([5]; human plasma, 37° C., 25 μM, 1.0 h): 100^a^ %; Compound remaining, % T = 4.0 h ([5]; human plasma, 37° C., 25 μM, 4.0 h): 100^a %; HK-2 cytotoxicity class ([7]; HK-2 cytotoxicity, Eurofins Cerep): Class 1; IC50 ([7]; HK-2 cytotoxicity, Eurofins Cerep, read-out: In vitro: human HK-2 cell assay IC50): 82 µM
